Results on 23 compounds are retold here after patent publication US6117864A, “Methods employing stable preparation containing azelastine hydrochloride” (ASTA Medica Aktiengesellschaft, priority 1992, dated 2000).

Structures are written as SMILES. Where a name gives a salt, the structure may show the parent alone. Read-outs that look alike come from different tables or passages of the source.

Data set [1] is described as follows: Azelastine hydrate production-suppressing effect of each of the additives (azelastine hydrochloride solutions, pH 8). In kind it is physicochemical. More on the design: key to Effect Against Production of Azelastine Hydrates: absolutely no hydrate formation; .largecircle.: absolutely no hydrate formation; Δ: hydrate formation decreased compared to the produced water; X: no hydrate production-suppressing effect. Particulars: for Effect Against Production of Azelastine Hydrates: 0.3 g azelastine hydrochloride in 100 ml, pH 8. The method, then: The azelastine hydrate production-suppressing effect was tested for each of the additives in azelastine hydro-chloride solutions. Each of the additives were added to 0.3 g of azelastine hydrochloride, the pH was adjusted to 8 with sodium hydroxide, and purified water was added to a total volume of 100 ml to determine whether or not azelastine hydrate crystals were produced. The identification of azelastine hydrate was carried out by filtering off the precipitates produced in the test solutions, drying them at room temperature, measuring thermal analysis (TG-DTA) (FIG. 1) and IR spectrum (azelastine hydrochloride reference standard: FIG. 2; azelastine hydrate: FIG. 3), and then comparing them to the standard.
Cases in which there was absolutely no hydrate formation are represented by [o], cases in which hydrate formation decreased compared to the produced water are represented by [Δ], and cases in which there was no hydrate production-suppressing effect are represented by [X].

For data set [2] the following is noted: cited from earlier work.
For data set [3] the following is noted: cited from earlier work; for percutaneous absorbability: technique of SHO 63-278108.
The conditions of data set [4]: cited from earlier work. The source holds these as a separate data set.
The conditions of data set [5]: dependence on pH; cited from earlier work.

With `CCCCCCCCCCCCCCCCCC(=O)O` [Stearic Acid], the “Effect Against Production of Azelastine Hydrates” value (“Effect Against Production” below) in data set [1] (amount added 0.5%) is “.largecircle”.
Consider `CCCCC/C=C\C/C=C\CCCCCCCC(=O)O` [Linolic Acid], for which the “Effect Against Production” value in data set [1] (amount added 0.5%) is on record as “.largecircle”.
As for `CCCCCCCCCCCCCC(=O)O` [Myristic Acid], the results for the “Effect Against Production” value in data set [1] (amount added 0.1%), in data set [1] (amount added 0.3%) and in data set [1] (amount added 0.5%) were “Δ”, “.largecircle” and “.largecircle”, respectively.
In the case of `CN1CCCC(n2nc(Cc3ccc(Cl)cc3)c3ccccc3c2=O)CC1` (stereo not drawn) [azelastine hydrate], in data set [2] (in aqueous preparation, crystalline hydrates of non-dissociation type molecules), the solubility result is “poor solubility”.
Take `CCCC(=O)O` [Butyric Acid, reference compound]: in data set [1], the “suppression of the production of azelastine hydrate (in words)” value (shortened to “suppression”) is recorded as “not exhibited”. In data set [1] (amount added 0.5%), the “Effect Against Production” value is given as “X”.
Take `CCCCCCCCCC(=O)O` [Capric Acid]: the “Effect Against Production” value in data set [1] (amount added 0.5%) is recorded as “.largecircle”.
For the compound `CCO` [Ethanol, reference compound], the “Effect Against Production” value in data set [1] (amount added 30%) was “X”.
For the compound `CN1CCCC(n2nc(Cc3ccc(Cl)cc3)c3ccccc3c2=O)CC1` (stereo not drawn) [azelastine hydrochloride], the increase in absorbability entry in data set [3] (technique of SHO 61-254532) is “no increase in absorbability was observed”. The percutaneous absorbability result in data set [3] (amount of azelastine hydrochloride high compared to the base) was “marked improvement”; in data set [3] (amount of azelastine hydrochloride low compared to the base) it was “poor percutaneous absorbability”. In addition, in data set [2] (solvents which may be used in pharmaceutical compositions), the solubility in solvents entry is “low solubility”.
`CCCCCC(=O)O` [Caproic Acid, reference compound]: in data set [1] (amount added 0.5%), the “Effect Against Production” value was “X”.
In the case of `CN1CCCC(n2nc(Cc3ccc(Cl)cc3)c3ccccc3c2=O)CC1` (stereo not drawn) [azelastine], the “acid dissociation constant (pKa)” value in data set [4] is given as “approximately 9.5”.
As for `CN1[C@@H]2C[C@@H](OC(=O)[C@H](CO)c3ccccc3)C[C@H]1[C@@H]1O[C@@H]12` [scopolamine], the percutaneous penetration speed entry in data set [5] was “in direct proportion to the pH”.
Turning to `CC(=O)O` [Acetic Acid, reference compound], in data set [1], the “suppression” value is recorded as “not exhibited”. Further, the “Effect Against Production” value in data set [1] (amount added 0.5%) was “X”.
On to `CCCCCCCC/C=C\CCCCCCCCCCCC(=O)O` [Erucid Acid], for which the “Effect Against Production” value in data set [1] (amount added 0.5%) is given as “.largecircle”.
For the compound `CCCCCCCC/C=C\CCCCCCCC(=O)O` [Oleic Acid], the “Effect Against Production” value is recorded as “Δ” in data set [1] (amount added 0.1%), “.largecircle” in data set [1] (amount added 0.3%) and “.largecircle” in data set [1] (amount added 1% (1 or 1.0)).
In the case of `CC(C)CCCCCCCCCCCCCCC(=O)O` [Isostearic Acid], in data set [1] (amount added 0.5%), the “Effect Against Production” value is “.largecircle”.
Same read-out and setting: the same measure for `CCCCCCCC(=O)O` [Caprylic Acid]: “Δ”.
Still for that read-out and setting: the result for `CCCCCC/C=C\CCCCCCCC(=O)O` [Palmitoleic Acid] reads “.largecircle”.
On to `CC(O)CO` (stereo not drawn) [Propylene glycol, reference compound], for which the “Effect Against Production” value in data set [1] (amount added 30%) was “X”.
For `CCCCCCCCCCCC(=O)O` [Lauric Acid], in data set [1] (amount added 0.5%), the “Effect Against Production” value was “.largecircle”.
Same read-out and setting: the result for `CCCCCCCCCCCCCCCCCCCCCC(=O)O` [Behenic Acid] reads “.largecircle”; that for `CC/C=C\C/C=C\C/C=C\CCCCCCCC(=O)O` [Linolenic Acid], “.largecircle”.
On the same count and under the same terms, the result for `CCCCCCCCCCCCCCCC(=O)O` [Palmitic Acid] reads “.largecircle”.
Regarding `CCC(=O)O` [Propionic Acid, reference compound], in data set [1], the “suppression” value is reported as “not exhibited”. For the same compound, the “Effect Against Production” value in data set [1] (amount added 0.3%) is “X”.
